Measurements reported in patent US20050272682A1, “SiRNA targeting PI3K signal transduction pathway and siRNA-based therapy” (priority 2004, published 2005).
Entries after “also recorded” stand apart in the source; their conditions may differ.

Assays:
KM20 tumor xenografts = assay: KM20 tumor xenograft growth in nude mice, intratumoral siRNA with electrotherapy; assay type: in vivo; conditions: 5 μg siRNA intratumoral + electric pulses every 3rd day; by day 12, persisted for the study period (30 days)
Procedure: For in vivo studies, 4-6 week old male nude^nu/nu mice were obtained from Harlan Sprague Dawley (Indianapolis, Ind.) and housed in clean pathogen-free rooms in an environment with controlled temperature (22° C.), humidity, and a 12 h light/dark cycle. The mice were fed standard chow (Formula Chow 5008; Purina Mills, St. Louis, Mo.) and tap water ad libitum and allowed to acclimate for one week.
Prior to tumor injection, KM20 cells were harvested, washed twice in ice-cold serum free minimum Eagle's medium, counted for viable cells by trypan blue exclusion. The cells were resuspended in the same medium and used to inject mice subcutaneously (sc) with 2×10^6 cells in a volume of 0.2 ml. After tumors reached ˜60 mm^2, mice were sacrificed and 9 mm^2 tumor xenografts were transferred to the left flank of athymic mice. After tumor xenografts reached ˜60 mm^2 (day 10), mice were randomly divided into three groups (n=5 mice/group): the first group of mice was treated with scrambled siRNA, the second and third groups were treated with siRNA (5 μg diluted in 100 μl of serum free medium) directed against pik3r1 or Akt1, respectively, as intratumoral injections. […] Tumor growth was assessed every third day from day 10 onward by measuring the two greatest perpendicular tumor dimensions using vernier calipers (Mitutozo, Tokyo, Japan) (Wang, et al., 2002). […]

KM12C cells [1] = assay: Ribonuclease protection assay, KM12C cells; assay type: cell-based, human
Procedure: (§1) Cells were treated with pik3r1 and Akt1 siRNA and harvested 72 h later. RNA was isolated from cells using TRIzol® RNA reagent according to the manufacturer's protocol. A multiprobe template set (hAPO3c), which assesses expression of caspase 8, FASL, FAS, DR3, Decoy receptor 1 (DcR1), DR4, DR5, TRAIL, TNFR p55, TRADD and the housekeeping genes GAPDH and L32, as well as the Human Apoptosis hAPO-2b and hAPO-2c Template Set were labeled using Ambion T7 MAXIscript. The Ambion RPA III kit was then utilized to hybridize the RNA from the samples with the labeled probes. After RNAse treatment of hybridized samples, protected products were resolved on a 5% acrylamide gel, adsorbed onto filter paper, and exposed to Kodak BioMax MR film in a cassette at −70° C. and analyzed as previously described (Wang, et al., 2000).

KM12C cells [2] = assay: MTT assay, KM12C cells; assay type: cell-based, human; conditions: KM12C cells at 96, 120 and 144 h after transfection
Procedure: (§2) Cells were transfected with pik3r1, Akt1 or scrambled siRNA at a density of 2×10^5 cells/well in 12 well plates. After 24 h, adherent cells were detached by rapid trypsinization, counted in a Hausser chamber and replated into 96 well plates at a concentration of 2×10^3 cells/well. […]

KM20 cells [3] = assay: Western blot of apoptosis-related proteins, KM20 cells; assay type: cell-based, human
Procedure: (§3) Cell culture transfection was carried out with siPORT™ Amine transfection agent according to the manufacturer's protocol. Three days after transfection with the siRNA duplexes, cells were harvested and protein expression was assessed by Western blot.
(§4) Western immunoblot analyses were performed as described previously (Wang, et al., 2000). Cells were lysed with TNN buffer at 4° C. for 30 min. Lysates were clarified by centrifugation (10,000×g for 30 min at 4° C.) and protein concentrations determined using the method of Bradford (1976). Briefly, total protein (100 μg) was resolved on a 10% polyacrylamide gel and transferred to Immobilon-P […] membranes. Filters were incubated overnight at 4° C. in blotting solution (Tris-buffered saline containing 5% nonfat dried milk and 0.1% Tween 20), followed by a 1-h incubation with primary antibodies. Filters were washed three times in a blocking solution and incubated with horseradish peroxidase-conjugated secondary antibodies for 1 h. After three additional washes, the immune complexes were visualized by ECL detection.

KM12C cells [4] = assay: DNA fragmentation assay (Cell Death Detection ELISA), KM12C cells; assay type: cell-based, human
Procedure: Cells were transfected with pik3r1, Akt1 or scrambled siRNA. After 48 h, adherent cells were detached by rapid trypsinization, counted in a Hausser chamber and seeded at a density of 2×10^3 cells per well in 96-well flat-bottom microtiter plates and incubated in 250 μl of growth medium for 24 h at 37° C. Media were removed and either new complete media or TRAIL (100 ng/mL) was added in a final volume of 200 μL and allowed to grow for 24 h at 37° C. After treatment, DNA fragmentation was evaluated by examination of cytoplasmic histone-associated DNA fragments (mono- and oligonucleosomes) using a Cell Death Detection ELISA^Plus kit (Roche Molecular Biochemicals) according to the manufacturer's instructions and as previously described (Wang. et al., 2002). The experiments were repeated on at least 3 separate occasions.

KM20 cells [5] = assay: MTT assay, KM20 cells; assay type: cell-based, human; conditions: KM20 cells at 96, 120 and 144 h after transfection
Procedure: as §2

KM12C cells [6] = assay: Western blot of apoptosis-related proteins, KM12C cells; assay type: cell-based, human
Procedure: as §3, §4

KM20 cells [7] = assay: Ribonuclease protection assay, KM20 cells; assay type: cell-based, human
Procedure: as §1

[8] = siRNA in combination with TRAIL

pik3r1 siRNA: siRNA to human pik3r1 (p85α) used in KM20/KM12C cells and xenografts; SEQ ID NO:24 vs. SEQ ID NO:25 (chain 1 GAAUAUACCCGCACAUCCCUU; chain 2 GGGAUGUGCGGGUAUAUUCUU; listed as RNA, chemistry not given here)
KM20 tumor growth (KM20 tumor xenografts): Significant inhibitory effects
Bcl-w mRNA expression (KM12C cells [1]): decreased
Bcl-x (L, S) mRNA expression (KM12C cells [1]): decreased
cell viability (MTT) (KM12C cells [2]): significantly decreased
Bax protein expression (KM20 cells [3]): increased
Bcl-2 protein expression (KM20 cells [3]): decreased
Bcl-xL protein expression (KM20 cells [3]): decreased
caspase-9 activation (35 kDa large active subunit) (KM20 cells [3]): activation
cytochrome C release (KM20 cells [3]): induced
protein expression for DR4/DR5 (KM20 cells [3]): increased
BID cleavage (KM20 cells [3]; [8]): BID cleavage
caspase-8 activation (KM20 cells [3]; [8]): activated
cleavage of pro-caspase-3 (KM20 cells [3]; siRNA in combination with TRAIL compared with TRAIL alone): enhanced
DNA fragmentation (apoptosis) (KM12C cells [4]; siRNA alone compared to scrambled sequence): increase; also recorded: induced
TRAIL-mediated apoptosis (DNA fragmentation) (KM12C cells [4]; siRNA in combination with TRAIL 100 ng/mL): significant augmentation
cell viability (MTT) (KM20 cells [5]): significantly decreased
Bax protein expression (KM12C cells [6]): increased
Bcl-2 protein expression (KM12C cells [6]): decreased
Bcl-xL protein expression (KM12C cells [6]): decreased
caspase-9 activation (35 kDa large active subunit) (KM12C cells [6]): activation
cytochrome C release (KM12C cells [6]): induced
Bcl-w mRNA expression (KM20 cells [7]): decreased
Bcl-x (L, S) mRNA expression (KM20 cells [7]): decreased
expression of the other apoptotic-related genes in the probe set (KM20 cells [7]): no marked change
mRNA expression of DR4 and DR5 (KM20 cells [7]): increased
